{"source": "patent US4374149A", "about": "“α-{[(Arylalkyl)amino]alkyl}-4-hydroxy-3-(lower-alkylsul finyl)benzenemethanols” (Sterling Drug Inc., priority 1978, dated 1983)", "key": {"systolic blood pressure": {"system": "systolic blood pressure", "assay": "Antihypertensive activity, reduction in systolic blood pressure, single oral medication, unanesthetized spontaneous hypertensive rat", "type": "in vivo", "details": "P.O., single dose, unanesthetized SH rat", "protocol": "Antihypertensive activity was determined on the basis of the observed reduction in systolic blood pressure measured according to the method of H. Kersten et al., J. Lab. and Clin. Med. 32, 1090 (1947) following a single oral medication in the unanesthetized spontaneous hypertensive rat described by Okamato et al., Japan Circulation J. 27, 282 (1963).\n^a AHD40 = single oral dose required to induce a 40 mm. average"}, "blood pressure": {"system": "blood pressure", "assay": "Antihypertensive activity, sustained lowering of blood pressure, repeated oral medication, unanesthetized trained renal hypertensive dog", "type": "in vivo", "quoted_text": "Antihypertensive activity was also judged on the basis of sustained reduction of blood pressure observed in the unanesthetized trained renal hypertensive dog following repeated oral medication according to the procedure described by Lape et al., Arch.\n^b MED10 = minimum repeated oral daily dose required to effect a"}, "β-adrenergic": {"system": "β-adrenergic", "assay": "β-adrenergic blocking activity, inhibition of isoproterenol-elicited heart rate increase in pentobarbitalized dog", "type": "in vivo", "details": "i.v.", "protocol": "The β-adrenergic blocking activity was determined in the pentobarbitalized dog as judged by the ability of the test compound to inhibit the elevation in heart rate elicited by a 0.5 mcg./kg. i.v. injection of isoproterenol.\n^e AED50 = approximate intravenous dose required to cause 50%"}, "isolated cat atria": {"system": "isolated cat atria", "assay": "Cardiotonic test procedure I, isolated cat atria", "details": "for Increase in right atrial force / Increase in right atrial rate: in vitro", "description": "The efficacy of this compound was judged, in vitro, on the basis of percent increase in contractile force in isolated cat atria and papillary muscle and, in vitro, on the basis of percent increase in cardiac contractile force in the intact anesthetized dog. Male cats weighing from 0.8 to 1.5 kg. were anesthetized with α-chloralose (80 mg./kg. i.p.). The chest was opened, the heart excised and the two atria dissected. A silk suture was tied to each of two opposite sides of the right atrium. One side of the atrium was tied to a glass rod and then mounted in a 50 ml. organ bath filled with Tyrode's solution. […] The transducer was then connected to a Grass polygraph and the force and rate of atrial contraction was recorded continuously. The left atrium was treated similarly using silver wire instead of silk sutures. The silver wire also served as a stimulating electrode. Both atria were mounted in the same bath. The right atrium was beating spontaneously due to the presence of the sinoatrial node, while the left atrium was stimulated electrically at a rate of 3 beats/sec. by suprathreshold rectangular pulses of 5 millisecond duration. The Tyrode's solution bathing the atria was of the following composition (in mM): NaCl 136.87, KCl 5.36, NaH2 PO4 0.41, CaCl2 1.80, MgCl2 6H2 O 1.05, NaHCO3 11.90, glucose 5.55 and EDTA 0.04. […] The preparation was left to equilibrate for one hour before any drug was added. The bathing fluid was changed 3 to 4 times during the equilibration time. At the end of equilibration period, the drug dissolved in a vehicle or the vehicle alone was added to the tissue bath and the full response recorded. The vehicle used was Tyrode' s solution to which, if required, sufficient acid was added to cause solution of the drug. […] Generally, a dose response study of at least 3 doses was done in the same preparation."}, "papillary muscle": {"system": "papillary muscle", "assay": "Cardiotonic test procedure IB, isolated cat papillary muscle", "details": "in vitro", "description": "The efficacy of this compound was judged, in vitro, on the basis of percent increase in contractile force in isolated cat atria and papillary muscle and, in vitro, on the basis of percent increase in cardiac contractile force in the intact anesthetized dog. Male cats 0.8 to 1.5 kg. were anethetized with α-chloralose (80 mg./kg. i.p.). The chest was opened and the heart excised. The heart was dipped and shaken in Tyrode's solution for the removal of blood from the cavities. The right ventricle was then slit open and the small and thin (about 1 mm. in diameter and 4 to 7 mm. in length) papillary muscles were dissected out. A silver wire was attached to each of the two ends of the papillary muscle. The ventricular end was attached to a platinum electrode and mounted in a tissue bath containing Tyrode's solution described above. The silver wire on the valvular end of the muscle was attached to a force displacement transducer for the measurement of the force and rate of muscle contraction. The muscle was stimulated at a rate of 3 beats/sec. by suprathreshold rectangular pulses of 5 millisecond duration. The rest of the procedure was continued as described above."}, "[1]": {"system": "cardiac contractile force", "assay": "Cardiotonic test procedure II, intact anesthetized dog", "type": "in vivo, mongrel dogs", "description": "The efficacy of this compound was judged, in vitro, on the basis of percent increase in contractile force in isolated cat atria and papillary muscle and, in vitro, on the basis of percent increase in cardiac contractile force in the intact anesthetized dog. The in vivo test procedure used is described as follows: Mongrel dogs of both sexes and varying in weight from 9 to 15 kg. were anesthetized with 30 mg./kg. pentobarbital sodium administered intravenously. The trachea was exposed and cannulated. The tracheal cannula was then attached to a Harvard respiratory pump using room air. The right femoral artery and vein were cannulated. […] The venous cannula was used for the intravenous administration of drugs. Pin electrodes were attached to the right forelimb and left hindlimb. The electrodes were then connected to a Grass polygraph for the continuous recording of the standard limb lead II electrocardiogram. A ventro-dorsal incision at the third inter-costal space was made, the ribs laterally retracted and the pericardium slit open to expose the myocardium. The base of the aorta was dissected and a flow probe was fitted around it. The flow probe was attached to a square wave electromagnetic flowmeter (Carolina Medical Electronics). The flowmeter was then connected to a Grass polygraph for the continuous recording of aortic blood flow. This flow was used as an index of cardiac output (actual cardiac output is aortic blood flow+coronary blood flow). Cardiac contractile force was measured by suturing a Walton-Brodie strain gauge to the wall of the right ventricle. At the end of the surgical procedure, the animal was left to rest and equilibrate for one hour with continuous recording of blood pressure, EKG, cardiac contractile force and aortic blood flow. After the equilibration period, the vehicle or the drug dissolved in the vehicle was administered by intravenous infusion (i.v. inf.), intravenous bolus (i.v. bol.) or intraduodenally (i.d.) and the response of all the parameters measured to drug administration was recorded continuously for different periods of times depending on the route of drug administration. When the route of administration was i.v. inf., the drug was administered until a peak effect was reached and infusion was then maintained for ten minutes. The above-described test systems were standardized using dopamine."}, "arrhythmia": {"system": "arrhythmia", "assay": "Antiarrhythmic activity (in words, test not specified)", "details": "in vivo", "description": "The test procedures were carried out as follows."}}}
{"smiles": "COc1ccc(CCC(C)NCC(=O)c2ccc(O)c([S+](C)[O-])c2)cc1.Cl", "note": "(stereo not shown) [Example 26B, 4'-hydroxy-2-[3-(4-methoxyphenyl)-1-methylpropyl]amino-3'-(methylsulfinyl)-acetophenone hydrochloride]", "values": [{"measurement": "Antihypertensive activity SH Rat AHD40 (single oral dose required to induce a 40 mm. average reduction in systolic blood pressure)", "setting": "systolic blood pressure", "result": "ca. 40.0 mg./kg."}, {"measurement": "Renal Hypertensive Dog MED10 (minimum repeated oral daily dose for sustained lowering of blood pressure of 10% or greater)", "setting": "blood pressure; administered once per day", "result": "> 20", "unit": "mg/kg"}, {"measurement": "Actual percentage reduction in blood pressure observed at the indicated dose", "setting": "blood pressure; once per day, 20 mg./kg.", "result": 0}, {"measurement": "Actual percentage inhibition of heart rate increase above control level observed at the indicated dose", "setting": "β-adrenergic; 1.0 mg./kg.", "result": 18, "unit": "%"}, {"measurement": "Dog β-blockade AED50 (approximate intravenous dose for 50% inhibition of isoproterenol-elicited heart rate increase)", "setting": "β-adrenergic; pentobarbitalized dog", "result": "> 1.0", "unit": "mg/kg"}, {"measurement": "Increase in right atrial force", "setting": "isolated cat atria; 10 /ml.", "result": 1, "unit": "%"}, {"measurement": "Increase in right atrial rate", "setting": "isolated cat atria; 10 /ml.", "result": 0, "unit": "%"}, {"measurement": "Increase in right atrial force", "setting": "isolated cat atria; 30 /ml.", "result": 5, "unit": "%"}, {"measurement": "Increase in right atrial rate", "setting": "isolated cat atria; 30 /ml.", "result": 3, "unit": "%"}, {"measurement": "Increase in right atrial force", "setting": "isolated cat atria; 100 /ml.", "result": 6, "unit": "%"}, {"measurement": "Increase in right atrial rate", "setting": "isolated cat atria; 100 /ml.", "result": 8, "unit": "%"}, {"measurement": "Cardiotonic activity (in words)", "setting": "isolated cat atria; one or more of the cardiotonic test procedures", "result": "cardiotonic activity"}, {"measurement": "Increase in papillary muscle force", "setting": "papillary muscle; 10 /ml.", "result": 7, "unit": "%"}, {"measurement": "Increase in papillary muscle force", "setting": "papillary muscle; 30 /ml.", "result": 23, "unit": "%"}, {"measurement": "Increase in papillary muscle force", "setting": "papillary muscle; 100 /ml.", "result": 38, "unit": "%"}, {"measurement": "Increase in cardiac contractile force", "setting": "[1]; 1.0 mg./kg., first series", "result": 22, "unit": "%"}, {"measurement": "Increase in cardiac contractile force", "setting": "[1]; 1.0 mg./kg., second, similar series", "result": 4, "unit": "%"}, {"measurement": "Increase in cardiac contractile force", "setting": "[1]; 3.0 mg./kg., first series", "result": 25, "unit": "%"}, {"measurement": "Increase in cardiac contractile force", "setting": "[1]; 3.0 mg./kg., second, similar series", "result": 12, "unit": "%"}, {"measurement": "Increase in cardiac contractile force", "setting": "[1]; 10.0 mg./kg., first series", "result": 59, "unit": "%"}, {"measurement": "Increase in cardiac contractile force", "setting": "[1]; 10.0 mg./kg., second, similar series", "result": 50, "unit": "%"}, {"measurement": "Antiarrhythmic activity (in words)", "setting": "arrhythmia", "result": "antiarrhythmic activity"}]}
